Laboratory results reported in ChEMBL document CHEMBL1201862, “PubChem BioAssay data set” (2004).
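Compound exposure: 48 hours, 5 concentrations, 96-well plates. GI50 marks 50% less growth.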 The source made the active and inactive calls. Cut-off read from the data, not from the text of the source: active = GI50 up to about 1.1 µM and inactive = higher.

What was measured:
Experiment in all cases: NCI anticancer screen, dose series, 48 h
HCC 2998 = tested on: HCC 2998
SK-MEL-5 = tested on: SK-MEL-5
HCT-116 = tested on: HCT-116
HCT-15 = tested on: HCT-15
LOX IMVI = tested on: LOX IMVI
SW-620 = tested on: SW-620
M19-MEL = tested on: M19-MEL
TK-10 = tested on: TK-10
SF-539 = tested on: SF-539
KM12 = tested on: KM12
SN12C = tested on: SN12C
M14 = tested on: M14
OVCAR-3 = tested on: OVCAR-3
HT-29 = tested on: HT-29
UACC-257 = tested on: UACC-257
U-251 = tested on: U-251
786-0 = tested on: 786-0
OVCAR-5 = tested on: OVCAR-5
RPMI-8226 = tested on: RPMI-8226
MCF7 = tested on: MCF7

SMILES | GI50 (HCC 2998) | GI50 (SK-MEL-5) | GI50 (HCT-116) | GI50 (HCT-15) [µM] | GI50 (LOX IMVI) | GI50 (SW-620) | GI50 (M19-MEL) | GI50 (TK-10) | GI50 (SF-539) | GI50 (KM12) | GI50 (SN12C) | GI50 (M14) | GI50 (OVCAR-3) | GI50 (HT-29) | GI50 (UACC-257) | GI50 (U-251) | GI50 (786-0) | GI50 (OVCAR-5) | GI50 (RPMI-8226) | GI50 (MCF7)
CCOC(=O)/C(=C/c1cc(OC)ccc1OC)CC(=O)O | > 31.6 µM (inactive) | > 100 µM (inactive) | > 100 µM (inactive) | > 43.7 | > 100 µM (inactive) | > 100 µM (inactive) | > 100 µM (inactive) | > 100 µM (inactive) | > 100 µM (inactive) | > 100 µM (inactive) | > 100 µM (inactive) | > 100 µM (inactive) | > 100 µM (inactive) | > 94.4 µM (inactive) | > 100 µM (inactive) | > 100 µM (inactive) | > 31.6 µM (inactive) | – | – | –
[O-][S+]1CSSC1 | 23.2 µM (inactive) | > 10 µM (inactive) | 16.2 µM (inactive) | – | 2.2 µM (inactive) | 15 µM (inactive) | 2.05 µM (inactive) | 23.7 µM (inactive) | 19.7 µM (inactive) | 13.9 µM (inactive) | 12 µM (inactive) | 22.5 µM (inactive) | 17.9 µM (inactive) | 7.64 µM (inactive) | 14.8 µM (inactive) | 18.7 µM (inactive) | 20.7 µM (inactive) | 16.8 µM (inactive) | – | –
Cc1ccc(S(=O)(=O)N(/N=C(\N)Oc2ccc(Cl)cc2)C(=N)Oc2ccc(Cl)cc2)cc1 | > 100 µM (inactive) | > 100 µM (inactive) | > 100 µM (inactive) | > 100 | > 100 µM (inactive) | > 100 µM (inactive) | > 100 µM (inactive) | > 100 µM (inactive) | > 100 µM (inactive) | > 100 µM (inactive) | > 100 µM (inactive) | > 100 µM (inactive) | > 100 µM (inactive) | > 100 µM (inactive) | > 100 µM (inactive) | > 100 µM (inactive) | > 100 µM (inactive) | > 100 µM (inactive) | – | –
O=C1CC(c2ccccc2)=Nc2ccccc2N1 | > 100 µM (inactive) | > 100 µM (inactive) | 86.5 µM (inactive) | > 100 | 35 µM (inactive) | 21.1 µM (inactive) | > 100 µM (inactive) | > 100 µM (inactive) | > 100 µM (inactive) | > 100 µM (inactive) | > 100 µM (inactive) | > 100 µM (inactive) | > 100 µM (inactive) | > 100 µM (inactive) | > 100 µM (inactive) | > 100 µM (inactive) | > 100 µM (inactive) | > 100 µM (inactive) | – | –
CC1OC(OC2C(O)COC(OC3C(C)OC(OC4C(OC(=O)[C@]56CCC(C)(C)C[C@@H]5C5=CCC7[C@@]8(C)C[C@H](O)[C@H](OC9OC(CO)C(O)C(OC%10OC(CO)C(O)C(O)C%10O)C9O)[C@@](C)(CO)[C@@H]8CC[C@@]7(C)[C@]5(C)CC6)OCC(O)C4O)C(O)C3OC3OCC(O)C(O)C3O)C2O)C(O)C(O)C1O (stereo partly specified) | 2.07 µM (inactive) | 4.45 µM (inactive) | 11.3 µM (inactive) | 13.5 | 13.2 µM (inactive) | 6.35 µM (inactive) | – | 10 µM (inactive) | 14.6 µM (inactive) | 8.61 µM (inactive) | 2 µM (inactive) | 1.87 µM (inactive) | 11.4 µM (inactive) | 18.7 µM (inactive) | 4.63 µM (inactive) | 5.62 µM (inactive) | 5.53 µM (inactive) | 7.43 µM (inactive) | 13.9 µM (inactive) | 17.3 µM (inactive)
O=C1NC(N2CCOCC2)=N/C1=C\c1ccco1 | > 100 µM (inactive) | > 100 µM (inactive) | > 100 µM (inactive) | > 100 | > 100 µM (inactive) | > 100 µM (inactive) | – | > 100 µM (inactive) | > 100 µM (inactive) | > 100 µM (inactive) | > 100 µM (inactive) | > 100 µM (inactive) | > 100 µM (inactive) | > 100 µM (inactive) | > 100 µM (inactive) | > 100 µM (inactive) | > 100 µM (inactive) | > 100 µM (inactive) | > 100 µM (inactive) | > 100 µM (inactive)
O=C(/C=C/c1ccccc1)c1cc(CN2CCOCC2)c(O)c(CN2CCOCC2)c1 | 18.6 µM (inactive) | 13.1 µM (inactive) | 12.6 µM (inactive) | 7.5 | 4.65 µM (inactive) | 12.3 µM (inactive) | – | 20.6 µM (inactive) | 15.1 µM (inactive) | 15.5 µM (inactive) | 11.9 µM (inactive) | 17.9 µM (inactive) | 12.2 µM (inactive) | 17.4 µM (inactive) | 14.3 µM (inactive) | 4.51 µM (inactive) | 9.42 µM (inactive) | 14.6 µM (inactive) | 4.55 µM (inactive) | 14.7 µM (inactive)
C#CCSc1nc(-c2ccco2)n[nH]1 | > 100 µM (inactive) | > 100 µM (inactive) | > 100 µM (inactive) | > 100 | > 100 µM (inactive) | > 100 µM (inactive) | – | > 100 µM (inactive) | > 100 µM (inactive) | > 100 µM (inactive) | > 100 µM (inactive) | > 100 µM (inactive) | > 100 µM (inactive) | > 100 µM (inactive) | > 100 µM (inactive) | > 100 µM (inactive) | > 100 µM (inactive) | > 100 µM (inactive) | > 100 µM (inactive) | > 100 µM (inactive)
